Columns and labels:
[1] = system: cytokine-stimulated VSMC; assay: Effect of arginine oligomers on NO production in cytokine-stimulated VSMC (NO2, Griess); assay type: cell-based, rat; conditions: exposure 5 minutes; observed for 24 hours; free L-arginine at 1 mM
[2] = system: cytokine-stimulated VSMC; assay: as above; assay type: cell-based, rat
Method: (§1) Rat VSMCs were prepared from the media layer of thoracic aorta of Sprague-Dawley rats by the explant method. The cells were cultured in Dulbecco's modified Eagle's medium (DMEM, Gibco BRL, Gaithersburg, Md.) containing 10% fetal calf serum, 100 U/ml penicillin and 100 μg/ml streptomycin at 37° C. under a humidified atmosphere containing 5% CO2. After subconfluent growth, cells were cultured with MEM Select Amine Kit (Gibco BRL, Gaithersburg, Md.) to be treated by specific concentrations of extracellular free L-arginine. Experiments were performed using cultured cells at passage levels of 5-10.
(§2) Extracellular NO production was measured as its stable oxidative metabolite, nitrite (NO2). At the end of each incubation, samples of the medium (80 μl) were collected, and NO2 measurement was performed using the Griess reaction facilitated by a commercial calorimetric assay (Cayman Chemical, Ann Arbor, Mich.). Values of NO2 production were corrected with relative cell count assessed by a cell proliferation kit II (XTT) (Boeheringer Mannheim, Germany).
Subconfluent cells were pre-incubated with medium containing 100 μM arginine for 24 hours. The cells were then transiently pretreated with each arginine polymer for 30 minutes. After translocation, the cells were incubated with a mixture of IFN-γ (100 U/ml) and LPS (100 μg/ml) in medium containing 100 μM L-arginine for another 24 hours. In some experiments, L-NMMA (1 mM), a nitric oxide synthase inhibitor, was added to the medium.

[3] = system: vein graft segments; assay: Ex vivo NOx production from vein graft harvested 3 days after surgery; assay type: in vivo, New Zealand white rabbits; conditions: vein grafts harvested after 3 days, absence of calcium ionophore
Method: Vein grafts were harvested 3 days after surgery, as described in Example 7. Vein graft segments were incubated in 1 me of Hanks' buffered saline solution (HBSS, Irvine Scientific) containing Ca^2+ (1.0 mM) and L-arginine (100 μM, Sigma) at 37° C. for 2 hours. NOx (nitrate and nitrite) production was measured either in the absence (basal) or presence (stimulated) of calcium ionophore (A23187, 10.0 μM, Sigma). Samples of the medium (80 μL) were collected, and NOx measurement was performed using the Griess reaction facilitated by a commercial calorimetric assay (Cayman Chemical).

[4] = system: Rat aortic VSMC; assay: VSMC proliferation assay (XTT); assay type: cell-based; conditions: 10.0 μM, 30 minutes, then growth medium 0.5% FBS for 48 hours; vs vehicle
Method: Rat aortic VSMC were grown to 50% confluence in 96-well cell culture plates. VSMC were then washed and incubated with serum free DMEM for 48 hours to obtain quiescent nondividing cells. Thereafter, VSMC were treated with vehicle, L-R7 (10.0 μM), or D-R7 (10.0 μM) for 30 minutes. After the treatment, cells were washed, and further incubated with serum containing DMEM (0.5%, FBS). Cells were harvested after 48 hours of incubation. Cell count was performed with commercial cell proliferation assay kit using spectrophotometer (XTT, Boehringer Mannheim). As a negative control, cells treated with vehicle and incubated with DSF were used. As an index of cell proliferation, the OD ratio of each treatment group to negative control group was calculated as an index of cell proliferation.

[5] = system: human umbilical vein endothelial cells (ECV304); assay: In vitro translocation of biotin-labeled peptides into endothelial cells; assay type: cell-based; conditions: VSMC and endothelial cells in culture
Method: Spontaneously transformed human umbilical vein endothelial cells (ECV304, ATCC) were cultured in medium M199 (Irvine Scientific) containing 10% fetal bovine serum (FBS), 100 IU/ml penicillin and 100 μg/ml of streptomycin (Gibco BRL). Confluent cells were washed and placed in serum-free medium. After 2 hours, the cells were incubated in presence of biotin labeled peptides, as bL-R7, or bD-R7, or bL-K7 (0.1, 1.0, and 10.0 μM). After 30 minutes of incubation, cells were washed 3 times with phosphate-buffered saline (PBS), fixed in ethanol/acetone; washed in PBS; incubated for 30 minutes with peroxidase suppressor (ImmunoPure, Pierce) to block endogenous peroxidase activity; and then incubated with 5 μg/ml of horse-radish peroxidase (HRP) conjugated strepavidin (Pierce) for 30 minutes. Substrate of HRP, diaminobenzidine (DAB, Sigma), was added to the cells. The reaction was terminated by washing in distilled water after a 60-second incubation. This experiment was repeated 3 times.

[6] = system: vein grafts; assay: Vein graft model: vessel morphometry 28 days after surgery; assay type: in vivo, New Zealand white rabbits
Method: Male New Zealand white rabbits (3.0-3.5 kg) fed standard diets were anesthetized with a mixture of ketamine (40 mg/kg) and xylazine (5 mg/kg) intramuscularly. The left external jugular vein was exposed through a longitudinal neck incision. The jugular vein was excised, gently flushed and immersed in PBS (control) or PBS containing either L-R7 (10.0 μM) or D-r7 (10.0 μM) for 30 minutes.
The right common carotid artery was exposed and clamped at the both proximal and distal ends. The treated vein segment was washed with PBS and then anastomosed in a reverse end-to-side fashion into the carotid artery, using continuous 8-0 polypropylene sutures. The common carotid artery was ligated and dissected between the two anastomoses, and the wound was closed with 3-0 nylon suture.
Vein graft segments were harvested on the 28th surgical day. Graft segments were fixed in 10% buffered formalin with gentle intraluminal pressure to maintain the physiological graft configuration. The middle portion of the paraffin samples were sectioned (5 μm) and stained with hematoxylin/eosin for light microscopic examination (FIGS. 8A-C). Three sections of each graft, taken at 0.5 mm intervals, were analyzed by planimetry by a observer blinded to the treatment group. The cross-sectional areas of the lumen, intima and media was digitized with the use of the Image Analyst program (Automatrix). The ratio of intima to media (I/M) area was calculated.

[7] = system: cell membrane; conditions: previously demonstrated; cited from earlier work
[8] = system: coronary vessels of transplanted PVG rat donor hearts; assay: Heart transplant study (graft coronary artery disease, GCAD); assay type: in vivo; conditions: for % affected vessels / % luminal narrowing / I/M ratio: intracoronary 50 uM, 30 minutes
Method: In this study, PVG rat donor hearts (n=48) were transplanted heterotopically into the abdomen of ACI recipients. Donor hearts received either intracoronary PBS or intracoronary 50 uM (L)-arginine polymer (L-R5 or L-R9) for 30 minutes. (D-arginine polymers were not included in this study.) Each of these groups was further divided into 60 and 90 day study animals (n=6 each). Percent luminal narrowing, intima to media ratio (I/M), and percent affected vessels were determined as described in Example 11, below. Transfection efficiency was determined by infusing biotinylated R5 and R9, as in the preceding studies, and calculating the percentage of biotin positive nuclei divided by total number of nuclei.
PVG rat donor hearts (n=48) were transplanted heterotopically into the abdomen of ACI recipients. Donor hearts received either intracoronary PBS or intracoronary 50 uM (L)-arginine polymer (L-R5 or L-R9) for 30 minutes. Each group was further divided into 60 and 90 day study animals (n=6 each). Tissue cross sections (5μ) were stained with EVG (Elastica-van Gieson) preparation, and vessels were scored using computerized morphometry for analysis of % luminal narrowing, intima to media ratio (I/M), and % affected vessels. Transfection efficiency was determined by infusing biotinylated R5 and R9, as in preceding examples, and calculating the percentage of biotin positive nuclei divided by total number of nuclei. Results are described in Section IV C, above.

[9] = system: rat VSMC; assay: Stimulation of cells with interferon-γ and LPS: NO2 accumulation and dependence on extracellular L-arginine; assay type: cell-based; conditions: IFN-γ dose
Method: as §1, §2
Cells were plated at a density of 5×10^3 per well into 96-well plates. […] After 24 hours of incubation, the cells were then treated with a mixture of IFN-γ (100 U/ml) and LPS (100 μg/ml) in the medium containing the same dose of L-arginine for another 24 hours, and nitrite (NO2) accumulation in the culture medium was quantified.

For `N=C(N)NCCC[C@H](N)C(=O)O` [L-arginine, reference compound], the “NO biosynthesis after 5 minutes exposure” value [1] was “did not significantly increase NO biosynthesis” and the “elevation of NO production” value ([2]; R7 10 μM pretreatment, free L-arginine up to 1 mM) was “not observed”.

For hepta-D-arginine [D-r7], the “Basal NOx production” value [3] was 48±8 nM/mg tissue/hr, the VSMC proliferation [4] was “significantly inhibited” and the NO production ([2]; 100 μM, 30 minutes) was “did not increase the NO production”. For the same molecule, the “translocation across cytoplasmic and nuclear membranes” value [5] was “very efficient at translocating across both cytoplasmic and nuclear membranes”, the myointima formation [6] was “substantially less myointima formation” and the “intima/media ratio (I/M)” value ([6]; 10.0 μM) was 0.8±0.2. The intimal area ([6]; 10.0 μM, 30 minutes immersion) was 1.1±0.4 mm^2 and the “reduction of intimal area” value ([6]; 10.0 μM, vs control) was “about 35%”.

For penta-L-arginine [R5], the “translocation across the cell membrane” value [7] is given as “not to translocate across the cell membrane”, the NO production ([2]; pretreatment 30 minutes, then IFN-γ and LPS, 100 μM extracellular L-arginine) is given as “no significant enhancement of NO production” and the myointima formation [6] is given as “not effective in inhibiting myointima formation”. The “GCAD compared to PBS controls” value ([8]; 60 and 90 days) was “essentially no difference in GCAD”, the “% affected vessels” value ([8]; 60 days) was 18.9 ± 7% and the “% luminal narrowing” value ([8]; 60 days) was 12.6 ± 6.7%. The I/M ratio ([8]; 60 days) was “.13 ± .07”, the “% affected vessels” value ([8]; 90 days) was 18.5 ± 11.9% and the “% luminal narrowing” value ([8]; 90 days) was 14.2 ± 12%. The I/M ratio ([8]; 90 days) was “.16 ± .14” and the “transfection of coronary vessels” value ([8]; biotinylated oligomer infused) was “minimal transfection of coronary vessels”.

B1: IFN-γ: Recombinant rat recombinant interferon-γ (protein, UniProt P01581 23-156, looked up)
Interferon gamma: QGTLIESLESLKNYFNSSSMDAMEGKSLLLDIWRNWQKDGNTKILESQIISFYLRLFEVLKDNQAISNNISVIESHLITNFFSNSKAKKDAFMSIAKFEVNNPQIQHKAVNELIRVIHQLSPESSLRKRKRSRC
With B1 the “effect on NO biosynthesis” value [9] was “dose-dependent”.
